Each structure is given as a SMILES string.

This test deals with Danio rerio larvae. Kind of test: Nile red fluorescence fat metabolism assay in zebrafish larvae. Particulars: 10 µg/mL, 48 h incubation of larvae. Type of test: in vivo. The procedure:
The study was conducted based on the method described earlier by Jones et al.. Starting at 3 days after fertilization (dpf), larvae were placed into 6-well plates and incubated with the test solutions (compounds in E3: JP-14 at a concentration of 10 μg/mL or resveratrol or E3 alone) for 48 h. Resveratrol solution (20 μg/mL) was used as the reference compound. After 24 h, the solutions were replaced with new ones containing Nile red dye (9-diethylamino-5H-benzo[α]phenoxazine-5-one, Pol-aura, Poland) at a concentration of 100 ng/mL. Nile red is a selective fluorescent lipid dye used to stain lipid droplets. Incubation with the dye was therefore 24 h. Stock solution of Nile red was prepared earlier by dissolving it in acetone to a concentration of 500 μg/mL. After the incubation period, the larvae were rinsed 3 times with 0.1 M phosphate-buffered, pH 7.4 (PBS, Sigma-Aldrich, Schnelldorf, Germany) and anesthetized with cold […] tricaine solution (Sigma-Aldrich, Schnelldorf, Germany). Next, they were visualized under a fluorescence microscope (Zeiss.Discovery.V8, Zeiss, Oberkochen, Germany) and analyzed with ImageJ FIJI program (version 2.17.0).

`[H]/N=C(\N)NN=Cc1c(Cl)cncc1Cl` [JP-14, (E)-2-((3,5-Dichloropyridin-4-yl)Methylene)Hydrazine-1-Carboximidamide]: the “Nile red detectable fat” value is “decrease”.

For the origin of these results see publication PMC12563652 (International Journal of Molecular Sciences, 2025).
